Several values for one entry are separate records, joined by “and”; a condition that tells them apart may be missing. Identical values can stand only once.
Tests used:
[1] = tested on: BALB/c mice exposed whole body to 10 Gy 137Cs-γ-irradiation; test: Whole body γ-irradiation (10 Gy), peptide 1.5 hours after irradiation; assay type: in vivo; settings: 10 mg/kg i.p. 1.5 hours after 10 Gy; for Watery eyes / Weight loss: affected/total; for Mortality: dead/total
Description: (§1) In the first experiment, 12-week-old female BALB/c mice were treated intraperitoneally with a single injection of either PBS (n=9) or with a peptide (LQGV (SEQ ID NO:117), VLPALP (SEQ ID NO:140), LPGCPRGVNPVVS (SEQ ID NO:114), MTRVLQGVLPALPQVVC (SEQ ID NO:113); n=8, 10 mg/kg). One and a half hours after the treatment, mice were exposed whole body to a single dose of 10 Gy ^137Cs-γ-irradiation. In the second experiment, 12-week-old female BALB/c mice were first exposed whole body to a single dose of 10 Gy ^137Cs-γ-irradiation and then 1.5 hours after the irradiation treated intraperitoneally with a single injection of either PBS (n=9) or with a peptide (n=8 or 9, 10 mg/kg).

[2] = tested on: BALB/c mice exposed whole body to 10 Gy 137Cs-γ-irradiation; test: Whole body γ-irradiation (10 Gy), peptide 1.5 hours before irradiation; assay type: in vivo; settings: 10 mg/kg i.p. 1.5 hours before 10 Gy; for Watery eyes / Weight loss: affected/total; for Mortality: dead/total
Description: as §1

[3] = tested on: mice after Whole Body Irradiation; test: Dose Reduction Factor (DRF) test, escalating WBI doses; assay type: in vivo; settings: for Percent alive at day 30 / Percent dead at day 30 / The absolute number of animals alive at 30 days post WBI: 10 mg/kg s.c. single dose at day 3
Description: Escalating doses of Whole Body Irradiation (WBI), with one single exposure given to any particular cohort, and the exposure dose going progressively higher, for each subsequent cohort. A single dose of peptide EA-230 (AQGV (SEQ ID NO:120)) was administered subcutaneously, but with treatment delayed until three days (72 hours) after the WBI. The test is called the Dose Reduction Factor (“DRF”), which is defined as ratio between the LD50 of the treated group to the LD50 of the control group. The LD50 refers to that dose which is lethal to 50% of the animals tested. An acceptable DRF value is 1.20.
In this example we report on escalating dose studies of Whole Body Irradiation (WBI) with one single exposure given to any particular cohort, and the exposure dose going progressively higher for each subsequent cohort. A single dose of peptide AQGV (SEO ID NO:120) (10 mg/kg) was administered subcutaneously, but with treatment delayed until three days (72 hours) after the WBI. The test is called the Dose Reduction Factor (“DRF”), which is defined as ratio between the LD50 of the treated group to the LD50 of the control group. The LD50 refers to that dose which is lethal to 50% of the animals tested.
An acceptable DRF ratio is a factor of at least 1.10; but preferred is at least 1.20 or even at least 1.25.

[4] = tested on: LPS-induced septic shock in mice; test: comparative trial MTR and AQGV from two sources, LPS sickness scores; assay type: in vivo; design: key to Sickness Score, individual mouse: 0: No abnormalities.; 1: Percolated fur, but no detectable behavior differences compared to normal mice.; 2: Percolated fur, huddle reflex, responds to stimuli (such as tap on cage), just as active during handling as healthy mouse.; 3: Slower response to tap on cage, passive or docile when handled, but still curious when alone in a new setting.; 4: Lack of curiosity, little or no response to stimuli, quite immobile.; 5: Labored breathing, inability or slow to self-right after being rolled onto back (moribund, sacrificed).; Dead; settings: LPS 10-11 mg/kg; for Survival %: group of six
Text: Mice were scored for sickness severity using the following measurement scheme: • 0 No abnormalities. • 1 Percolated fur, but no detectable behavior differences compared to normal mice. • 2 Percolated fur, huddle reflex, responds to stimuli (such as tap on cage), just as active during handling as healthy mouse. • 3 Slower response to tap on cage, passive or docile when handled, but still curious when alone in a new setting. • 4 Lack of curiosity, little or no response to stimuli, quite immobile. • 5 Labored breathing, inability or slow to self-right after being rolled onto back (moribund, sacrificed). • D Dead.
A comparative trial was set up to compare peptide MTR and AQGV (SEQ ID NO:120), each obtained from two commercial sources. The comparative trial comprised six groups of six animals; two groups (1A and 1B) receiving placebo (PBS), one group ([…]), one group (3) receiving peptide MTR (source Ansynth), one group (4) receiving peptide AQGV (SEQ ID NO:120) (source Pepscan) and one group (5) receiving peptide AQGV (SEQ ID NO:120) (source Ansynth). Peptide/placebo in these groups was administered two hours after LPS. LPS (source) was used at 10 to 11 mg/kg. Sickness scores were done at 0, 2, 22, 26, 42, and 48 hours after LPS injection.
Comparative trial MTR and AQGV (SEO ID NO:120), each derived from two sources, all at 5 mg/kg.

[5] = tested on: LPS-induced septic shock in mice; settings: single treatment after high dose LPS injection; cited from earlier work
[6] = 0 hours (LPS treatment), peptide from Ansynth (#Ansynth 12, #Ansynth 46) 5 mg/kg
[7] = 0 hours (LPS treatment), peptide from Diosynth BV (#970, #971) 5 mg/kg
[8] = 2 hours (compound treatment), peptide from Ansynth (#Ansynth 12, #Ansynth 46) 5 mg/kg
[9] = 2 hours (compound treatment), peptide from Diosynth BV (#970, #971) 5 mg/kg
[10] = 22 hours, peptide from Ansynth (#Ansynth 12, #Ansynth 46) 5 mg/kg
[11] = 22 hours, peptide from Diosynth BV (#970, #971) 5 mg/kg
[12] = 26 hours, peptide from Ansynth (#Ansynth 12, #Ansynth 46) 5 mg/kg
[13] = 26 hours, peptide from Diosynth BV (#970, #971) 5 mg/kg
[14] = 42 hours, peptide from Ansynth (#Ansynth 12, #Ansynth 46) 5 mg/kg
[15] = 42 hours, peptide from Diosynth BV (#970, #971) 5 mg/kg
[16] = 48 hours, peptide from Ansynth (#Ansynth 12, #Ansynth 46) 5 mg/kg
[17] = 48 hours, peptide from Diosynth BV (#970, #971) 5 mg/kg
[18] = peptide from Ansynth (#Ansynth 12, #Ansynth 46) 5 mg/kg
[19] = peptide from Diosynth BV (#970, #971) 5 mg/kg

LQGV
Watery eyes ([1]; day 0 after irradiation): 0/9
Weight loss ([1]; day 0 after irradiation): 0/9
Mortality ([1]; day 0 after irradiation): 0/9
Mortality ([1]; day 3 after irradiation): 0/9
Watery eyes ([1]; day 4 after irradiation): 3/9
Weight loss ([1]; day 4 after irradiation): 9/9
Mortality ([1]; day 4 after irradiation): 0/9
Mortality ([1]; day 5 after irradiation): 1/9
Mortality ([1]; day 6 after irradiation): 6/9
Mortality ([1]; day 7 after irradiation): 9/9
Watery eyes ([2]; day 0 after irradiation): 0/8
Weight loss ([2]; day 0 after irradiation): 0/8
Mortality ([2]; day 0 after irradiation): 0/8
Mortality ([2]; day 3 after irradiation): 0/8
Watery eyes ([2]; day 4 after irradiation): 0/8
Weight loss ([2]; day 4 after irradiation): 8/8
Mortality ([2]; day 4 after irradiation): 0/8
Mortality ([2]; day 5 after irradiation): 0/8
Mortality ([2]; day 6 after irradiation): 7/8
Mortality ([2]; day 7 after irradiation): 8/8

AQGV
Dose Reduction Factor (factor by which the radiation dose has to be increased to kill 50% of the animals) ([3]; 10 mg/kg s.c. single dose 72 hours after WBI, LD50 treated / LD50 control): 1.25
radiation dose that kills 50% of the treated animals (LD50) ([3]; 10 mg/kg s.c. single dose 72 hours after WBI, day 30): ~10.4 Gy
Percent alive at day 30 ([3]; WBI 8.6 Gy): 100%
Percent dead at day 30 ([3]; WBI 8.6 Gy): 0%
The absolute number of animals alive at 30 days post WBI ([3]; WBI 8.6 Gy): 20
Percent alive at day 30 ([3]; WBI 9.2 Gy): 100%
Percent dead at day 30 ([3]; WBI 9.2 Gy): 0%
The absolute number of animals alive at 30 days post WBI ([3]; WBI 9.2 Gy): 10
Percent alive at day 30 ([3]; WBI 9.8 Gy): 100%
Percent dead at day 30 ([3]; WBI 9.8 Gy): 0%
The absolute number of animals alive at 30 days post WBI ([3]; WBI 9.8 Gy): 10
Percent alive at day 30 ([3]; WBI 10.4 Gy): 40%
Percent dead at day 30 ([3]; WBI 10.4 Gy): 60%
The absolute number of animals alive at 30 days post WBI ([3]; WBI 10.4 Gy): 4
Percent alive at day 30 ([3]; WBI 11.0 Gy): 0%
Percent dead at day 30 ([3]; WBI 11.0 Gy): 100%
The absolute number of animals alive at 30 days post WBI ([3]; WBI 11.0 Gy): 0
Sickness Score, individual mouse [4, 6]: 0
Sickness Score, individual mouse [4, 7]: 0
Sickness Score, individual mouse [4, 8]: 2
Sickness Score, individual mouse [4, 9]: 2
Sickness Score, individual mouse [4, 10]: 3 (2×) and 2 (3×) and 4
Sickness Score, individual mouse [4, 11]: 2 (4×) and 3 and 4
Sickness Score, individual mouse [4, 12]: 3 (2×) and 2 (3×) and 4
Sickness Score, individual mouse [4, 13]: 2 (3×) and 3 (2×) and 5
Sickness Score, individual mouse [4, 14]: 2 and 3 and 1 (3×) and 5
Sickness Score, individual mouse [4, 15]: 2 (5×) and dead
Sickness Score, individual mouse [4, 16]: 1 (5×) and dead
Sickness Score, individual mouse [4, 17]: 2 (3×) and 1 (2×)
Survival % [4, 18]: 83%
Survival % [4, 19]: 83%

VLPALP (hexamer peptide)
Watery eyes ([1]; day 0 after irradiation): 0/9
Weight loss ([1]; day 0 after irradiation): 0/9
Mortality ([1]; day 0 after irradiation): 0/9
Mortality ([1]; day 3 after irradiation): 0/9
Watery eyes ([1]; day 4 after irradiation): 0/9
Weight loss ([1]; day 4 after irradiation): 9/9
Mortality ([1]; day 4 after irradiation): 0/9
Mortality ([1]; day 5 after irradiation): 0/9
Mortality ([1]; day 6 after irradiation): 3/9
Mortality ([1]; day 7 after irradiation): 9/9
septic shock in mice (in words) [5]: inhibited septic shock in mice
Watery eyes ([2]; day 0 after irradiation): 0/8
Weight loss ([2]; day 0 after irradiation): 0/8
Mortality ([2]; day 0 after irradiation): 0/8
Mortality ([2]; day 3 after irradiation): 0/8
Watery eyes ([2]; day 4 after irradiation): 0/8
Weight loss ([2]; day 4 after irradiation): 8/8
Mortality ([2]; day 4 after irradiation): 0/8
Mortality ([2]; day 5 after irradiation): 0/8
Mortality ([2]; day 6 after irradiation): 7/8
Mortality ([2]; day 7 after irradiation): 8/8

MTR
Sickness Score, individual mouse [4, 6]: 0
Sickness Score, individual mouse [4, 7]: 0
Sickness Score, individual mouse [4, 8]: 2
Sickness Score, individual mouse [4, 9]: 2
Sickness Score, individual mouse [4, 10]: 2 (4×) and 4 and 3
Sickness Score, individual mouse [4, 11]: dead and 3 and 2 (3×) and 4
Sickness Score, individual mouse [4, 12]: 1 and 2 (2×) and 5 and 4 and 3
Sickness Score, individual mouse [4, 13]: 3 and 2 (3×) and 5
Sickness Score, individual mouse [4, 14]: 1 and 2 (2×) and dead and 4 and 5
Sickness Score, individual mouse [4, 15]: 5 and 2 (2×) and 4 and dead
Sickness Score, individual mouse [4, 16]: 1 (2×) and dead (2×) and 2
Sickness Score, individual mouse [4, 17]: dead (2×) and 2 (2×)
Survival % [4, 18]: 50%
Survival % [4, 19]: 33%

Source: US7795226B2, “Control of radiation injury” (Biotempt B.V., priority 2006, dated 2010)
